# According to patent publication US9884823B2, “Oxime ether acetate compound, preparation method therefor and weeding application thereof” (ZHEJIANG UNIVERSITY OF TECHNOLOGY, priority 2014, dated 2018):
# Like-named read-outs stand apart in the source and are kept apart here.
# Key:
# Wheat = experiment: Culture dish method (general screening); format: in vivo; details: 100 mg/L, 7 days
# Description: (§3) Culture dish method (general screening): The test targets were radish, cucumber, rape, wheat, sorghum and barnyard grass; the seeds of wheat, sorghum and radish were germinated in advance, and the uniform emerge-germinating seeds were used in the test.
# Chinese sorghum = experiment: Culture dish method (general screening); format: in vivo; details: 100 mg/L, 7 days
# Description: as §3
# Barnyardgrass [1] = experiment: Culture dish method (general screening); format: in vivo, barnyard grass; details: 100 mg/L, 7 days
# Description: as §3
# Cucumber = experiment: Culture dish method (general screening); format: in vivo; details: 100 mg/L, 7 days
# Description: as §3
# Rape [2] = experiment: Culture dish method (general screening); format: in vivo; details: 100 mg/L, 7 days
# Description: as §3
# Radish = experiment: Culture dish method (general screening); format: in vivo; details: 100 mg/L, 7 days
# Description: as §3
# Abutilon = experiment: Potted plants live body test; format: in vivo
# Description: (§1) The raw drug which was selected from the compounds in table 1 was weighed using an analytical balance (0.0001 g), and dissolved in DMF containing 1 wt % Tween-80 emulsifier to prepare a mother liquor of raw drug with a mass concentration of 1.0˜5.0%, and then diluted with distilled water, to prepare preparations at desired concentrations according to the ratio of ingredients in Examples 8, 9 and 10.
# (§2) The test targets were mustard, small quinoa, Abutilon, amaranthus retroflexus, Eclipta prostrata, crabgrass, dog point. A pot with a diameter of 7.5 cm was used, filled with composite soil (garden soil:nursery matrix, 1:2, v/v) to ¾ of the pot, then the above […] kinds of weeds targets were directly seeded (germination rate ≧85%), covered with soil at a thickness of 0.2 cm. When the weeds grew to 3-leaf stage, pre-emergence soil treatment for weeds planting, and then spraying was performed.
# Crabgrass = experiment: Potted plants live body test; format: in vivo
# Description: as §1, §2
# Dog point = experiment: Potted plants live body test; format: in vivo
# Description: as §1, §2
# Eclipta prostrata = experiment: Potted plants live body test; format: in vivo; details: for efficiency, Eclipta prostrata: 30 days, Table 9
# Description: as §1, §2
# amaranthus retroflexus = experiment: Potted plants live body test; format: in vivo
# Description: as §1, §2
# Barnyardgrass [3] = experiment: Potted plants live body test; format: in vivo, barnyard grass
# Small quinoa = details: 150 g a.i./ha, 30 days, Table 9
# Description: as §1, §2
# [4] = test system: broadleaf weeds such as mustard, small quinoa, Abutilon, Amaranthus retroflexus and Eclipta prostrate; details: 150 g a.i./ha; for herbicidal activity on broadleaf weeds targets: 30 days after administration, Table 9 summary; for activity on the growth of broadleaf weeds: postemergence spraying, vs clear water control
# Description: as §1, §2
# [5] = test system: grass weeds such as crabgrass, barnyard grass, dog point; details: for activity for grass targets such as crabgrass and dog point / activity on grass weeds such as crabgrass, dog point / activity on grass weeds: 150 g a.i./ha; for activity for grass targets such as crabgrass and dog point: 30 days after administration, Table 9 summary; for activity on grass weeds such as crabgrass, dog point: postemergence spraying, 30 days; for activity on crabgrass, barnyard grass, dog point: postemergence treatment, 150, 75, 37.5 g a.i./ha; for activity on grass weeds: pre-emergence soil treatment
# Description: as §1, §2
# weeds = details: pre-emergence soil treatment; dose lowered below 150 g a.i./ha
# Description: as §1, §2
# Mustard = details: 150 g a.i./ha, 30 days, Table 9
# Corn = details: post-emergence spray treatment; for Crop inhibition rate, Corn: 150 g a.i./ha
# Soybean = details: 150 g a.i./ha; post-emergence spray treatment
# Cotton = details: 150 g a.i./ha; post-emergence spray treatment
# Rice = details: 150 g a.i./ha; post-emergence spray treatment
# Rape [6] = details: 150 g a.i./ha; post-emergence spray treatment
# Barley = details: post-emergence spray treatment; for Crop inhibition rate, Barley: 150 g a.i./ha
# [7] = Postemergence spraying, 150 g a.i./ha, 30 days, Table 9
# [8] = Pre-emergence soil treatment, 37.5 g a.i./ha
# [9] = Pre-emergence soil treatment, 75 g a.i./ha
# [10] = Pre-emergence soil treatment, 150 g a.i./ha, 30 days, Table 9
# [11] = Pre-emergence soil treatment, 150 g a.i./ha, Table 10
# [12] = postemergence spraying, 37.5 g a.i./ha
# [13] = postemergence spraying, 75 g a.i./ha
# [14] = postemergence spraying, 150 g a.i./ha, Table 10
# [15] = Postemergence spraying, 150 g a.i./ha
# [16] = Pre-emergence soil treatment, 150 g a.i./ha
smiles,measurement,setting,value
CON=C(C(=O)OC)c1ccccc1COc1cccc(-c2ncc(C(F)(F)F)cc2Cl)c1 [Compound 101],"inhibition rate, Wheat Root",Wheat,50%
same,"inhibition rate, Wheat Stem",Wheat,20%
same,"inhibition rate, Chinese sorghum Root",Chinese sorghum,100%
same,"inhibition rate, Chinese sorghum Stem",Chinese sorghum,100%
same,"inhibition rate, Barnyardgrass Root",Barnyardgrass [1],100%
same,"inhibition rate, Barnyardgrass Stem",Barnyardgrass [1],95%
same,"inhibition rate, Cucumber Root",Cucumber,95%
same,"inhibition rate, Cucumber Stem",Cucumber,100%
same,"inhibition rate, Rape Root",Rape [2],100%
same,"inhibition rate, Rape Stem",Rape [2],100%
same,"inhibition rate, Radish Root",Radish,100%
same,"inhibition rate, Radish Stem",Radish,100%
same,"efficiency, Abutilon",Abutilon; [7],100%
same,"efficiency, Abutilon",Abutilon; [8],0%
same,"efficiency, Abutilon",Abutilon; [9],0%
same,"efficiency, Abutilon",Abutilon; [10],100%
same,"efficiency, Abutilon",Abutilon; [11],100%
same,"efficiency, Abutilon",Abutilon; [12],30%
same,"efficiency, Abutilon",Abutilon; [13],60%
same,"efficiency, Abutilon",Abutilon; [14],100%
same,"efficiency, Crabgrass",Crabgrass; [7],0%
same,"efficiency, Crabgrass",Crabgrass; [8],0%
same,"efficiency, Crabgrass",Crabgrass; [9],0%
same,"efficiency, Crabgrass",Crabgrass; [10],80%
same,"efficiency, Crabgrass",Crabgrass; [11],80%
same,"efficiency, Crabgrass",Crabgrass; [12],0%
same,"efficiency, Crabgrass",Crabgrass; [13],0%
same,"efficiency, Crabgrass",Crabgrass; [14],0%
same,"efficiency, Dog point",Dog point; [7],0%
same,"efficiency, Dog point",Dog point; [8],0%
same,"efficiency, Dog point",Dog point; [9],0%
same,"efficiency, Dog point",Dog point; [10],50%
same,"efficiency, Dog point",Dog point; [11],50%
same,"efficiency, Dog point",Dog point; [12],0%
same,"efficiency, Dog point",Dog point; [13],0%
same,"efficiency, Dog point",Dog point; [14],0%
same,"efficiency, Eclipta prostrata",Eclipta prostrata; [15],100%
same,"efficiency, Eclipta prostrate",Eclipta prostrata; [8],0%
same,"efficiency, Eclipta prostrate",Eclipta prostrata; [9],0%
same,"efficiency, Eclipta prostrata",Eclipta prostrata; [16],85%
same,"efficiency, Eclipta prostrate",Eclipta prostrata; [11],85%
same,"efficiency, Eclipta prostrate",Eclipta prostrata; [12],97.5%
same,"efficiency, Eclipta prostrate",Eclipta prostrata; [13],100%
same,"efficiency, Eclipta prostrate",Eclipta prostrata; [14],100%
same,"efficiency, amaranthus retroflexus",amaranthus retroflexus; [7],100%
same,"efficiency, amaranthus retroflexus",amaranthus retroflexus; [8],0%
same,"efficiency, amaranthus retroflexus",amaranthus retroflexus; [9],15%
same,"efficiency, amaranthus retroflexus",amaranthus retroflexus; [10],100%
same,"efficiency, amaranthus retroflexus",amaranthus retroflexus; [11],100%
same,"efficiency, amaranthus retroflexus",amaranthus retroflexus; [12],100%
same,"efficiency, amaranthus retroflexus",amaranthus retroflexus; [13],100%
same,"efficiency, amaranthus retroflexus",amaranthus retroflexus; [14],100%
same,"efficiency, Barnyardgrass",Barnyardgrass [3]; [8],0%
same,"efficiency, Barnyardgrass",Barnyardgrass [3]; [9],0%
same,"efficiency, Barnyardgrass",Barnyardgrass [3]; [11],0%
same,"efficiency, Barnyardgrass",Barnyardgrass [3]; [12],0%
same,"efficiency, Barnyardgrass",Barnyardgrass [3]; [13],0%
same,"efficiency, Barnyardgrass",Barnyardgrass [3]; [14],0%
same,"efficiency, Small quinoa",Small quinoa; Postemergence spraying,100%
same,"efficiency, Small quinoa",Small quinoa; Pre-emergence soil treatment,100%
same,herbicidal activity on broadleaf weeds targets,[4],herbicidal activity
same,activity on the growth of broadleaf weeds,[4]; 30 days,inhibitory activity
same,activity for grass targets such as crabgrass and dog point,[5],poor activity
same,"activity on grass weeds such as crabgrass, dog point",[5],almost have no activity
same,"activity on crabgrass, barnyard grass, dog point",[5],not good activity or no activity
same,activity on grass weeds,[5],not good activity
same,activity on 6 kinds of weed targets,weeds,significantly decreased activity or no activity
same,"efficiency, Mustard",Mustard; Postemergence spraying,100%
same,"efficiency, Mustard",Mustard; Pre-emergence soil treatment,100%
same,"Crop inhibition rate, Corn",Corn,0%
same,crop safety for corns,Corn,safer
same,"Crop inhibition rate, Soybean",Soybean,40%
same,"Crop inhibition rate, Cotton",Cotton,50%
same,"Crop inhibition rate, Rice",Rice,30%
same,"Crop inhibition rate, Rape",Rape [6],50%
same,"Crop inhibition rate, Barley",Barley,0%
same,crop safety for barleys,Barley,safer
CON=C(C(=O)OC)c1ccccc1COc1ccc(-c2ncc(Cl)cc2Cl)cc1 [Compound 133],"inhibition rate, Wheat Root",Wheat,50%
same,"inhibition rate, Wheat Stem",Wheat,0%
same,"inhibition rate, Chinese sorghum Root",Chinese sorghum,100%
same,"inhibition rate, Chinese sorghum Stem",Chinese sorghum,100%
same,"inhibition rate, Barnyardgrass Root",Barnyardgrass [1],100%
same,"inhibition rate, Barnyardgrass Stem",Barnyardgrass [1],100%
same,"inhibition rate, Cucumber Root",Cucumber,100%
same,"inhibition rate, Cucumber Stem",Cucumber,100%
same,"inhibition rate, Rape Root",Rape [2],100%
same,"inhibition rate, Rape Stem",Rape [2],100%
same,"inhibition rate, Radish Root",Radish,100%
same,"inhibition rate, Radish Stem",Radish,100%
same,"efficiency, Abutilon",Abutilon; [7],100%
same,"efficiency, Abutilon",Abutilon; [8],0%
same,"efficiency, Abutilon",Abutilon; [9],0%
same,"efficiency, Abutilon",Abutilon; [10],100%
same,"efficiency, Abutilon",Abutilon; [11],100%
same,"efficiency, Abutilon",Abutilon; [12],100%
same,"efficiency, Abutilon",Abutilon; [13],100%
same,"efficiency, Abutilon",Abutilon; [14],100%
same,efficiency on Abutilon,"Abutilon; postemergence treatment, over doses 150, 75, 37.5 g a.i./ha",100%
same,"efficiency, Crabgrass",Crabgrass; [7],0%
same,"efficiency, Crabgrass",Crabgrass; [8],0%
same,"efficiency, Crabgrass",Crabgrass; [9],0%
same,"efficiency, Crabgrass",Crabgrass; [10],50%
same,"efficiency, Crabgrass",Crabgrass; [11],50%
same,"efficiency, Crabgrass",Crabgrass; [12],0%
same,"efficiency, Crabgrass",Crabgrass; [13],0%
same,"efficiency, Crabgrass",Crabgrass; [14],0%
same,"efficiency, Dog point",Dog point; [7],0%
same,"efficiency, Dog point",Dog point; [8],0%
same,"efficiency, Dog point",Dog point; [9],0%
same,"efficiency, Dog point",Dog point; [10],50%
same,"efficiency, Dog point",Dog point; [11],50%
same,"efficiency, Dog point",Dog point; [12],0%
same,"efficiency, Dog point",Dog point; [13],0%
same,"efficiency, Dog point",Dog point; [14],0%
same,"efficiency, Eclipta prostrata",Eclipta prostrata; [15],100%
same,"efficiency, Eclipta prostrate",Eclipta prostrata; [8],0%
same,"efficiency, Eclipta prostrate",Eclipta prostrata; [9],0%
same,"efficiency, Eclipta prostrata",Eclipta prostrata; [16],100%
same,"efficiency, Eclipta prostrate",Eclipta prostrata; [11],100%
same,"efficiency, Eclipta prostrate",Eclipta prostrata; [12],97.5%
same,"efficiency, Eclipta prostrate",Eclipta prostrata; [13],100%
same,"efficiency, Eclipta prostrate",Eclipta prostrata; [14],100%
same,"efficiency, amaranthus retroflexus",amaranthus retroflexus; [7],100%
same,"efficiency, amaranthus retroflexus",amaranthus retroflexus; [8],20%
same,"efficiency, amaranthus retroflexus",amaranthus retroflexus; [9],30%
same,"efficiency, amaranthus retroflexus",amaranthus retroflexus; [10],100%
same,"efficiency, amaranthus retroflexus",amaranthus retroflexus; [11],100%
same,"efficiency, amaranthus retroflexus",amaranthus retroflexus; [12],100%
same,"efficiency, amaranthus retroflexus",amaranthus retroflexus; [13],100%
same,"efficiency, amaranthus retroflexus",amaranthus retroflexus; [14],100%
same,"efficiency, Barnyardgrass",Barnyardgrass [3]; [8],0%
same,"efficiency, Barnyardgrass",Barnyardgrass [3]; [9],0%
same,"efficiency, Barnyardgrass",Barnyardgrass [3]; [11],0%
same,"efficiency, Barnyardgrass",Barnyardgrass [3]; [12],0%
same,"efficiency, Barnyardgrass",Barnyardgrass [3]; [13],0%
same,"efficiency, Barnyardgrass",Barnyardgrass [3]; [14],0%
same,"efficiency, Small quinoa",Small quinoa; Postemergence spraying,100%
same,"efficiency, Small quinoa",Small quinoa; Pre-emergence soil treatment,100%
same,inhibition rate on the growth of broadleaf weeds,[4]; 30 days,100%
same,herbicidal activity on broadleaf weeds targets,[4],herbicidal activity
same,activity on the growth of broadleaf weeds,[4]; 30 days,inhibitory activity
same,activity for grass targets such as crabgrass and dog point,[5],poor activity
same,"activity on grass weeds such as crabgrass, dog point",[5],almost have no activity
same,"activity on crabgrass, barnyard grass, dog point",[5],not good activity or no activity
same,activity on grass weeds,[5],not good activity
same,activity on 6 kinds of weed targets,weeds,significantly decreased activity or no activity
same,"efficiency, Mustard",Mustard; Postemergence spraying,100%
same,"efficiency, Mustard",Mustard; Pre-emergence soil treatment,100%
same,"Crop inhibition rate, Corn",Corn,0%
same,crop safety for corns,Corn,safer
same,"Crop inhibition rate, Soybean",Soybean,40%
same,"Crop inhibition rate, Cotton",Cotton,50%
same,"Crop inhibition rate, Rice",Rice,30%
same,"Crop inhibition rate, Rape",Rape [6],100%
same,"Crop inhibition rate, Barley",Barley,0%
same,crop safety for barleys,Barley,safer
